From patent US20250197343A1, “CATIONIC LIPID” (TAKEDA PHARMACEUTICAL COMPANY LIMITED, priority 2021, published 2025)

Columns and labels:
ICrl:CD1 (ICR) mice = assay: Mouse bioluminescence imaging evaluation (Test Example 1); format: in vivo; conditions: Luc DNA-encapsulated lipid nanoparticles 10 mL/kg i.v. to ICR mice; IVIS total flux 15 minutes after luciferin i.p.
Protocol: The Luc DNA-encapsulated lipid nanopatricles obtained in the aforesaid Production Example were intravenously administered to the tails of ICrl:CD1 (ICR) mice (10 mL/kg i.v.). After administration of the lipid particles, luciferin (15 mg/mL) was administered to the mice (10 mL/kg i.p.), which were loaded in an IVIS (in vivo imaging system) apparatus (manufactured by PerkinElmer, Inc.) under isoflurane inhalation anesthesia. Luminescence images of the mice were taken ventrally (in a supine position) 15 minutes after luciferin administration. The luminescence was digitized with the software of IVIS, followed by evaluation using the value of total flux. Higher luminescence means strong expression of the protein encoded by the DNA encapsulate in the lipid particle. In Table 2, higher luminescence is indicated on a scale of A, B and C in order. A represents luminescence of 3.0E+07 or more, B represents luminescence of 1.0E+0.7 or more and less than 3.0E+07, and C represents luminescence of less than 1.0E+07.

[1] = Rate of encapsulation of Luc DNA in lipid nanoparticles; format: physicochemical; design: unit: %; conditions: Luc DNA-encapsulated lipid nanoparticles; cationic lipid:DPPC:cholesterol:GM-020=60:10.6:28:1.4 molar ratio
Description: The concentration and rate of encapsulation of the nucleic acid (e.g., siRNA or mRNA) in the composition of the present invention can be measured by a known approach. For example, the nucleic acid is fluorescently labeled using Quant-iT™ RiboGreen® (Invitrogen Corp.), and the fluorescence intensity can be measured to determine the concentration and the rate of encapsulation. The concentration of the nucleic acid in the composition can be calculated using a calibration curve prepared from aqueous nucleic acid solutions having known concentrations. The rate of encapsulation can be calculated on the basis of the difference in fluorescence intensity between the presence and absence of addition of Triton-X 100 (surfactant for disrupting the lipid particle). The concentration of the nucleic acid in the composition refers to the total concentration of a nucleic acid encapsulated in the lipid particle and an unencapsulated nucleic acid. The rate of encapsulation refers to the ratio of the nucleic acid encapsulated in the lipid particle to all nucleic acids in the composition.
(§1) A lipid mixture containing a cationic lipid of the Examples shown in Table 2 (cationic lipid:DPPC:cholesterol:GM-020=60:10.6:28:1.4, molar ratio) was dissolved in 90% of EtOH and 10% of water to obtain a 15.0 mg/ml lipid solution. Luciferase (luc) DNA (manufactured by Nature Technology Corp.) was dissolved in a 10 mM MES buffer solution (pH 5.5) to obtain a 0.3 mg/ml nucleic acid solution. The obtained lipid solution and nucleic acid solution were mixed at a flow rate ratio of 3 ml/min:6 ml/min at room temperature using NanoAssemblr (manufactured by Precision NanoSystems Inc.) to obtain a dispersion containing Luc DNA-encapsulated lipid nanoparticles. The obtained dispersion was dialyzed against water at room temperature for 1 hour and against PBS at 4° C. for 23 hours using Slyde-A-Lyzer (molecular weight cutoff: 20 K, Thermo Fischer Scientific Inc.). Subsequently, the dialysate was filtered through a 0.2 µm syringe filter (Iwaki). A 60% solution of sucrose in PBS was added thereto, and the mixture was preserved as a 20% solution of sucrose in PBS at −80° C. Analysis results of particle size and rate of encapsulation of the Luc DNA-encapsulated lipid nanoparticles are also shown in Table 2.

[2] = Particle size of Luc DNA-encapsulated lipid nanoparticles; format: physicochemical; conditions: cationic lipid:DPPC:cholesterol:GM-020=60:10.6:28:1.4 molar ratio
Description: The particle size of the lipid particle (in the composition) can be measured by a known approach. For example, the particle size can be calculated as a Z-average particle size by the cumulant analysis of an autocorrelation function using a particle size measurement apparatus Zetasizer Nano ZS (Malvern Instruments) based on a dynamic light scattering measurement technique. The particle size (average particle size) of the lipid particle (in the composition) is, for example, 10 to 200 nm, preferably 60 to 170 nm.
as §1

Compound	Luminescence (ICrl:CD1 (ICR) mice)	Rate of encapsulation [1]	Particle size (nm) [2] [nm]
CCCCCCCOC(=O)CCCCC(=O)OCC(COC(=O)CCCCC(=O)OCCCCCCC)(COC(=O)CCN(C)C)COC(=O)CC(CCCCC)CCCCC [Example 12, 1,1′-(2-{[(N,N-Dimethyl-beta-alanyl)oxy]methyl}-2-{[(3-pentyloctanoyl)oxy]methyl}propane-1,3-diyl) 6,6′-diheptyl dihexanedioate]	C (C represents luminescence of less than 1.0E+07)	95.7	89.5
CCCCCCCOC(=O)CCCCC(=O)OCC(COC(=O)CCCCC(=O)OCCCCCCC)(COC(=O)CCCN(CC)CC)COC(=O)CC(CCCCC)CCCCC [Example 14, 1,1′-[2-{{[4-(Diethylamino)butanoyl]oxy}methyl)-2-{[(3-pentyloctanoyl)oxy]methyl}propane-1,3-diyl] 6,6′-diheptyl dihexanedioate]	A (A represents luminescence of 3.0E+07 or more)	94.7	145.0
CCCCCCCOC(=O)CCCCC(=O)OCC(COC(=O)CCN(C)C)(COC(=O)CC(CCCCC)CCCCC)COC(=O)CC(CCCCC)CCCCC [Example 15, 2-{[(N,N-Dimethyl-beta-alanyl)oxy]methyl}-3-[(3-pentyloctanoyl)oxy]-2-{[(3-pentyloctanoyl)oxy]methyl}propyl heptyl hexanedioate]	C (C represents luminescence of less than 1.0E+07)	95.9	89.5
CCCCCCCOC(=O)CCCCC(=O)OCC(COC(=O)CCCN(C)C)(COC(=O)CC(CCCCC)CCCCC)COC(=O)CC(CCCCC)CCCCC [Example 16, 2-({[4-(Dimethylamino)butanoyl]oxy}methyl)-3-[(3-pentyloctanoyl)oxy]-2-{[(3-pentyloctanoyl)oxy]methyl}propyl heptyl hexanedioate]	B (B represents luminescence of 1.0E+0.7 or more and less than 3.0E+07)	97.0	98.4
CCCCCCCOC(=O)CCCCC(=O)OCC(COC(=O)CCCN(CC)CC)(COC(=O)CC(CCCCC)CCCCC)COC(=O)CC(CCCCC)CCCCC [Example 17, 2-({[4-(Diethylamino)butanoyl]oxy}methyl)-3-[(3-pentyloctanoyl)oxy]-2-{[(3-pentyloctanoyl)oxy]methyl}propyl heptyl hexanedioate]	B (B represents luminescence of 1.0E+0.7 or more and less than 3.0E+07)	96.2	120.7
CCCCCC(CCCCC)CC(=O)OCC(COC(=O)CCCCC(=O)OCCCC)(COC(=O)CCN(C)C)COC(=O)CC(CCCCC)CCCCC [Example 19, Butyl 2-{[(N,N-dimethyl-beta-alanyl)oxy]methyl}-3-[(3-pentyloctanoyl)oxy]-2-{[(3-pentyloctanoyl)oxy]methyl}propyl hexanedioate]	B (B represents luminescence of 1.0E+0.7 or more and less than 3.0E+07)	95.4	89.8
CCCCCC(CCCCC)CC(=O)OCC(COC(=O)CCCCC(=O)OCCCC)(COC(=O)CCCN(C)C)COC(=O)CC(CCCCC)CCCCC [Example 20, Butyl 2-({[4-(dimethylamino)butanoyl]oxy}methyl)-3-[(3-pentyloctanoyl)oxy]-2-{[(3-pentyloctanoyl)oxy]methyl}propyl hexanedioate]	B (B represents luminescence of 1.0E+0.7 or more and less than 3.0E+07)	97.2	104.2
CCCCCC(CCCCC)CC(=O)OCC(COC(=O)CCCCC(=O)OCCCC)(COC(=O)CCCN(CC)CC)COC(=O)CC(CCCCC)CCCCC [Example 21, Butyl 2-({[4-(diethylamino)butanoyl]oxy}methyl)-3-[(3-pentyloctanoyl)oxy]-2-{[(3-pentyloctanoyl)oxy]methyl}propyl hexanedioate]	B (B represents luminescence of 1.0E+0.7 or more and less than 3.0E+07)	96.2	131.4
